Assay results reported in patent US11266668B2, “Dietary supplement for glycemia control and diabetes prevention” (WORLD PHARMACEUTICAL TECHNOLOGY, LLC., priority 2018, dated 2022).
Marks after values point to notes of the source that are not given here.

Legend:
Sprague-Dawley (SD) rats = assay: sucrose loading test (postprandial blood glucose after sucrose gavage); assay type: in vivo, rat; settings: male SD rats, sucrose 2.0 g/kg gavage, 5 mg/kg
Experimental: The inhibitory effect of Example Formula 1 and Example Formula 2 (see Table 1 and Table 2) on postprandial hyperglycemia after carbohydrate loading in Sprague-Dawley (SD) rats was assessed. All animal studies were performed according to the Act on Welfare and Management of Animals law—Act No. 105 of Oct. 1, 1973. Six week-old male SD rats were utilized and fed a solid diet for one week. Rats were housed five per cage in a room with a 12:12 hour light:dark cycle and an ambient temperature of 22-25° C. After 4 groups (n=5) were fasted for one day, 2.0 g/kg of sucrose were gavaged concurrently with Example Formula 1 (200 and 400 mg/kg) (e.g., provided at 200 or 400 mg total weight of Example Formula 1 per 1 Kg of the testing subject or patient) or 5 mg/kg Acarbose. The blood samples were collected from the tail after treatment and blood glucose concentrations were determined at 0, 0.5, 1, and 2 hours by utilizing glucose oxidase method. FIG. 1 and FIG. 2 show the effect of different dosage of Example Formula 1 or Example Formula 2 on sucrose loading test. After fasting for one day, 7-week-old, male SD rats were gavaged with sucrose solution (2.0 g/kg) with or without (the Control sample) Example Formula 1 or Example Formula 2. Acarbose was utilized as a positive control. Each point in the drawing represents mean±SD. (n=5). *p<0.05, **p<0.01 versus their corresponding controls at the same time points by unpaired Student's t-test. After fasting for one day, 7-week-old, male SD rats were gavaged with sucrose solution (2.0 g/kg) with or without the Comparative Example Formula 1. Acarbose was used as a positive control. Each point represents mean±SD. (n=5). *p<0.05, **p<0.01 versus their corresponding controls at the same time points by unpaired Student's t-test. Table 4 below lists the blood glucose level of rats under different dosage of Example Formula 1 and Comparative Example Formula 1 on sucrose loading test (unit: mM). The procedure is as described above. After fasting for one day, 7-week-old, male SD rats were gavaged with sucrose solution (2.0 g/kg) with or without Example Formula 1 or Comparative Example Formula 1. Acarbose was used as a positive control. Each point represents mean±SD. (n=5). *p<0.05, **p<0.01 versus their corresponding controls at the same time points by unpaired Student's t-test.

[1] = clinical phase I dose-escalation trial; cited from earlier work

## C[C@H]1O[C@H](O[C@H]2[C@H](O)[C@@H](O)[C@@H](O[C@H]3[C@H](O)[C@@H](O)C(O)O[C@@H]3CO)O[C@@H]2CO)[C@H](O)[C@@H](O)[C@@H]1N[C@H]1C=C(CO)[C@@H](O)[C@H](O)[C@H]1O (some centres unmarked) [Acarbose]
Sprague-Dawley (SD) rats; time 0 hour
  blood glucose level: 5.4 ± 0.2 mM
Sprague-Dawley (SD) rats; time 0.5 hour
  blood glucose level: 6.5 ± 0.3** mM
Sprague-Dawley (SD) rats; time 1 hour
  blood glucose level: 6.9 ± 0.4** mM
Sprague-Dawley (SD) rats; time 2 hour
  blood glucose level: 6.5 ± 0.4 mM

## O=CC[C@@H](O)[C@H](O)[C@H](O)CO [2-deoxy-D-glucose]
[1]
  clinically tolerable dose: 63 mg/kg
